Measurements reported in publication PMC12486301 (The Journal of pharmacology and experimental therapeutics, 2025).
Values joined by “and” are separate entries in the source; they are usually repeats but may differ in a detail not shown here. Equal values may be shown once. Read-outs that look alike come from different tables or passages of the source.

Legend:
ENT1 [1] = target: T1, ENT1 (Homo sapiens, UniProt Q99808); assay: Inhibition of [3H]uridine uptake into WT HeLa; format: cell-based; details: for inhibition at 20 µM: HeLa; for ENT1 % Inhibition (±SD): 20 μM, model-predicted compounds from MedChem Express Drug Repurposing Library
T1 sequence (Q99808 1-456): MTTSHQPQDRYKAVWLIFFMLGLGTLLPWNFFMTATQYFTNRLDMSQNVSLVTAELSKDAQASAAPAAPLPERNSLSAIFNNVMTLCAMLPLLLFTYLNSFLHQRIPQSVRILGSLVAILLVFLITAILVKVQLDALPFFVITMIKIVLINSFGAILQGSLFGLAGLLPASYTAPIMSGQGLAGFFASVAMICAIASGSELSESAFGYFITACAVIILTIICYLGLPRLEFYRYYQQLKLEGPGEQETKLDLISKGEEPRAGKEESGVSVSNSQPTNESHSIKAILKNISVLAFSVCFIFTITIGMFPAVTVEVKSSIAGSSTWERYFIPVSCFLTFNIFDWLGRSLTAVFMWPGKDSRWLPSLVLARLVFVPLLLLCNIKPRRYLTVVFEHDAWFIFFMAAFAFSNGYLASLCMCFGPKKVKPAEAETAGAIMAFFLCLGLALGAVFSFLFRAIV

ENT2 [2] = target: T2, ENT2 (Homo sapiens, UniProt Q14542); assay: Inhibition of [3H]uridine uptake into HeLa FlpIn cells overexpressing hENT2; format: cell-based; details: for inhibition at 20 µM: HeLa; for ENT2 % Inhibition (20μM): 20 μM compound, 5 min [3H]uridine uptake, HeLa cells overexpressing hENT2
T2 sequence (Q14542 1-456): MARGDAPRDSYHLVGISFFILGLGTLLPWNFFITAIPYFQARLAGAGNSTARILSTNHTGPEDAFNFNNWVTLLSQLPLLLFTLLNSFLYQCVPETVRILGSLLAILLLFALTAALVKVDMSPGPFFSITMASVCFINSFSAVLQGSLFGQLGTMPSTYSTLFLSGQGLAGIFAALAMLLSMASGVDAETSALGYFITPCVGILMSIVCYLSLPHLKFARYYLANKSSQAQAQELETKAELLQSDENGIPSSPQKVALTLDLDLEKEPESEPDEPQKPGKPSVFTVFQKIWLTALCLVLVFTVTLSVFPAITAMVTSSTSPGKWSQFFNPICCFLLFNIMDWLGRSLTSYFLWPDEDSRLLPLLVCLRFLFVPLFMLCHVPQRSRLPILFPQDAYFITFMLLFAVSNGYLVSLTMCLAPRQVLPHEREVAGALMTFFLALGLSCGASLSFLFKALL

[3] = ref Table S8, cited from earlier work
ENT1 [4] = target: T1, ENT1; assay: Kinetics of radiolabeled uridine uptake, ENT1 cell line; format: cell-based; details: 5 min uptake, pH 7.4
ENT2 [5] = target: T2, ENT2; details: 5 min uptake, pH 7.4
[6] = tested on: HeLa FlpIn ENT2 cell line; details: 2 minutes
HeLa S2 cell line = assay: Functional assessment: NBMPR block of [3H]uridine uptake in HeLa S2 cells; format: cell-based, human; details: 100 nM NBMPR, 2 minutes
[7] = read-out: ENT1 inhibition of uridine uptake (Spectrum screen, text)
[8] = read-out: ENT2 inhibition of transport activity (Spectrum screen, text)
[9] = read-out: ENT1 % Inhibition (20μM)
[10] = read-out: ENT2 % Inhibition (20μM)
[11] = read-out: ENT1 % Inhibition (±SD)

C=CC[C@@H]1/C=C(\C)C[C@H](C)C[C@H](OC)[C@H]2O[C@@](O)(C(=O)C(=O)N3CCCC[C@H]3C(=O)O[C@H](/C(C)=C/[C@@H]3CC[C@@H](O)[C@H](OC)C3)[C@H](C)[C@@H](O)CC1=O)[C@H](C)C[C@@H]2OC [tacrolimus]
inhibition at 20 µM (ENT1 [1]; [7]): ~80% | inhibition at 20 µM (ENT2 [2]; [8]): 35%

CC(=O)N1CCN(c2ccc(OCC3COC(Cn4ccnc4)(c4ccc(Cl)cc4Cl)O3)cc2)CC1 (centres unmarked) [ketoconazole]
human plasma levels (molar) ([3]; converted from ng/mL): 6.6 µM and 11.3 µM | human plasma levels ([3]; documented clinical concentrations): 3500 ng/mL and 6000 ng/mL | IC50 (ENT1 [1]): 7.2 ± 1.2 µM | inhibition at 20 µM (ENT1 [1]; [9]): 98.4% | IC50 (ENT2 [2]): 22.8 ± 0.7 µM | inhibition at 20 µM (ENT2 [2]; [10]): 89.4%

COc1ccc(-c2cc(=O)c3c(OC)c(OC)c(OC)cc3o2)cc1OC [sinensetin]
IC50 (ENT1 [1]): 1.25 ± 0.3 µM | inhibition at 20 µM (ENT1 [1]; [9]): 95.9% | inhibition at 20 µM (ENT1 [1]; [7]): ~80% | IC50 (ENT2 [2]): 22.2 ± 2.2 µM | inhibition at 20 µM (ENT2 [2]; [10]): 82.5% | inhibition at 20 µM (ENT2 [2]; [8]): 35%

CC(=O)[C@H]1CC[C@H]2[C@@H]3C[C@H](C)C4=CC(=O)CC[C@]4(C)[C@H]3[C@@H](O)C[C@]12C [medrysone]
IC50 (ENT1 [1]): 4.44 ± 0.9 µM | inhibition at 20 µM (ENT1 [1]; [9]): 95.1% | IC50 (ENT2 [2]): 210 ± 89.2 µM | inhibition at 20 µM (ENT2 [2]; [10]): 56.3%

O=c1[nH]c2ccccc2n1CCCN1CCC(n2c(=O)[nH]c3cc(Cl)ccc32)CC1 [domperidone]
inhibition at 20 µM (ENT1 [1]; [9]): 24.4% | IC50 (ENT2 [2]): 0.16 ± 0.04 µM | inhibition at 20 µM (ENT2 [2]; [10]): 64.3%

O=c1c(O)c(-c2ccc(O)c(O)c2)oc2cc(O)cc(O)c12 [quercetin]
IC50 (ENT1 [1]): 20.6 ± 6.8 µM | inhibition at 20 µM (ENT1 [1]; [9]): 53.1% | IC50 (ENT2 [2]): 117 ± 24.6 µM | inhibition at 20 µM (ENT2 [2]; [10]): 84.3%

CCOC(=O)c1ncn2c1CN(C)C(=O)c1cc(F)ccc1-2 [flumazenil]
IC50 (ENT1 [1]): 121 ± 0.7 µM | inhibition at 20 µM (ENT1 [1]; [9]): 20% | IC50 (ENT2 [2]): 3.82 ± 0.3 µM | inhibition at 20 µM (ENT2 [2]; [10]): 85.1%

C[C@@H]1O[C@@H](O[C@H]2[C@H](Oc3cc(O)c4c(c3)O[C@H](c3ccc(O)cc3)CC4=O)O[C@H](CO)[C@@H](O)[C@@H]2O)[C@H](O)[C@H](O)[C@H]1O [naringin]
IC50 (ENT1 [1]): 101 ± 8.9 µM | inhibition at 20 µM (ENT1 [1]; [9]): 24.4% | IC50 (ENT2 [2]): 266 ± 81.5 µM | inhibition at 20 µM (ENT2 [2]; [10]): 8.5%

O=c1ccn([C@@H]2O[C@H](CO)[C@@H](O)[C@H]2O)c(=O)[nH]1 [uridine]
Jmax, maximal rate of uridine transport (ENT1 [4]): 20.2 ± 5.1 pmol·cm^−2·min^−1 | Kt, Michaelis constant for uridine (ENT1 [4]): 37.7 ± 12.9 µM | Kt, Michaelis constant for uridine (ENT2 [5]): 119.1 ± 28.9 µM

O=c1c(O)c(-c2cc(O)c(O)c(O)c2)oc2cc(O)cc(O)c12 [myricetin]
IC50 (ENT1 [1]): 47.4 ± 1.7 µM | inhibition at 20 µM (ENT1 [1]; [9]): 82.4% | IC50 (ENT2 [2]): 28.2 ± 1.6 µM

COc1cc2ncnc(Nc3ccc(F)c(Cl)c3)c2cc1OCCCN1CCOCC1 [gefitinib]
inhibition at 20 µM (ENT2 [2]; [10]): 54.6%

COc1cc([C@H]2Oc3cc([C@H]4Oc5cc(O)cc(O)c5C(=O)[C@@H]4O)ccc3O[C@@H]2CO)ccc1O [Silybin A]
inhibition at 20 µM (ENT1 [1]; [11]): 67.5%

CCc1oc2ccccc2c1C(=O)c1cc(Br)c(O)c(Br)c1 [benzbromarone]
IC50 (ENT1 [1]): 29.8 ± 2.1 µM | inhibition at 20 µM (ENT1 [1]; [9]): 79.6% | IC50 (ENT2 [2]): 262 ± 108 µM | inhibition at 20 µM (ENT2 [2]; [10]): 25.4%

Cc1ccc(C(=O)Nc2ccc(Oc3cc4cnn(C)c4cc3-c3cn[nH]c3)c(F)c2)c(=O)n1-c1ccc(F)cc1.Cl.Cl [Merestinib dihydrochloride]
ENT1 % Inhibition (±SD) (ENT1 [1]): 58.49 (4.13) %

CCCCc1nc(Cl)c(CO)n1Cc1ccc(-c2ccccc2-c2nn[nH]n2)cc1 [losartan]
IC50 (ENT2 [2]): 172 ± 60.2 µM | inhibition at 20 µM (ENT2 [2]; [10]): 33%

CCCCC1(CCCC)CN(c2ccccc2)c2cc(SC)c(OCC(=O)N[C@@H](C(=O)N[C@@H](CC)C(=O)O)c3ccc(O)cc3)cc2S(=O)(=O)N1 [Odevixibat]
inhibition at 20 µM (ENT1 [1]; [11]): 78.3%

Cc1ccc([C@@H]2O[C@H](CO)[C@@H](O)[C@H](O)[C@H]2O)cc1Cc1ccc(-c2ccc(F)cc2)s1 [canagliflozin]
ENT1 % Inhibition (20μM) (ENT1 [1]; 20 μM compound, 5 min [3H]uridine uptake, WT HeLa cells): 74.5% | IC50 (ENT1 [1]; read-out: ENT1 IC50 (μM) ± SD, 5 min uptake of ~10 nM [3H]uridine, WT HeLa cells): 24 ± 5.1 µM | ENT2 % Inhibition (20μM) (ENT2 [2]): 56.5%

CCn1c(=O)c2c(nc(/C=C/c3ccc(OC)c(OC)c3)n2C)n(CC)c1=O [Istradefylline]
inhibition at 20 µM (ENT1 [1]; [11]): 96.1%

C[C@]12CC[C@@H]3c4ccc(O)cc4CC[C@H]3[C@@H]1CC[C@H]2O [Alpha-Estradiol]
inhibition at 20 µM (ENT1 [1]; [11]): 77.2%

CO[C@H]1C[C@@H]2CC[C@@H](C)[C@@](O)(O2)C(=O)C(=O)N2CCCC[C@H]2C(=O)O[C@H]([C@H](C)C[C@@H]2CC[C@@H](OCCO)[C@H](OC)C2)CC(=O)[C@H](C)/C=C(\C)[C@@H](O)[C@@H](OC)C(=O)[C@H](C)C[C@H](C)/C=C/C=C/C=C/1C [Everolimus]
inhibition at 20 µM (ENT1 [1]; [11]): 92%

O=[N+]([O-])c1ccc(CSc2ncnc3c2ncn3C2OC(CO)C(O)C2O)cc1 (centres unmarked) [NBMPR, nitrobenzylthioinosine]
total [3H]uridine uptake blocked ([6]; 100 nM NBMPR): ~ 55% | total [3H]uridine uptake reduced ([6]; 100 μM NBMPR): ~ 80% | reduction of [3H]uridine uptake (HeLa S2 cell line): 65–75%

NC[C@H]1O[C@H](O[C@H]2[C@H](O)[C@@H](O[C@H]3O[C@H](CO)[C@@H](O)[C@H](N)[C@H]3O)[C@H](N)C[C@@H]2N)[C@H](O)[C@@H](O)[C@@H]1O [kanamycin]
ENT1 % Inhibition (20μM) (ENT1 [1]): 43.7% | ENT2 % Inhibition (20μM) (ENT2 [2]): 11.7%

COc1ccc(-c2c(Cl)ncn2-c2ccc(S(N)(=O)=O)cc2)cc1F [Cimicoxib]
inhibition at 20 µM (ENT1 [1]; [11]): 57.3%

COC(=O)c1cc(OC)c2c(c1-c1c(CO)cc(OC)c3c1OCO3)OCO2 [Bicyclol]
inhibition at 20 µM (ENT1 [1]; [11]): 72.3%

CCn1cnc2c(-c3ccc(F)c(-c4ccc(S(=O)(=O)CC)cc4OC)c3)cnnc21 [PF-06372865]
ENT1 % Inhibition (±SD) (ENT1 [1]): 100.45 (0.02) %

COc1cc(-c2cnc3cc(OCCN4CCOCC4)ccn23)cc2c1C(=O)N(CC(F)(F)F)CC2 [GLPG3970]
inhibition at 20 µM (ENT1 [1]; [11]): 68.1%

CO[C@H]1CC[C@H](n2c([C@@H]3CCCC(=O)N3c3ccc(F)c(F)c3)nc3cc(-c4c(C)noc4C)ccc32)CC1 [Inobrodib]
inhibition at 20 µM (ENT1 [1]; [11]): 91.4%
